The record followed here is patent US9896443B2, “Perforin inhibiting benzenesulfonamide compounds, preparation and uses thereof” (Peter MacCallum Cancer Institute, priority 2012, dated 2018).

Like-named read-outs stand apart in the source and are kept apart here.

In data set [1] the target is recombinant perforin (UniProt P10820). Format: cell-based. How it is done:
Inhibition of perforin-mediated lysis of Jurkat cells.
The ability of the compounds to inhibit the lysis of nucleated (Jurkat T lymphoma) cells in the presence of 0.1% BSA, as measured by release of ^51Cr was measured. Jurkat target cells were labelled by incubation in medium with 100 μCi ^51Cr for one hour. The cells were then washed three times to remove unincorporated isotope and re-suspended at 1×10^5 cells per mL in RPMI buffer supplemented with 0.1% BSA. […] Each data point was performed in triplicate and an IC50 was calculated from the range of concentrations described to above.

The test system of data set [2] is KHYG-1 NK cell-mediated lysis of K562 cells. As to the kind of experiment: Inhibition of KHYG-1 NK cell-mediated lysis of K562 cells (51Cr release). Format: cell-based. Particulars: 4 h, K562 target cells, Effector:Target 2:1, 4 hours at 37° C. On the procedure: Inhibition of KHYG-1 NK Cell-Mediated Lysis of K562 Cells.
Test compounds were added to KHYG-1 cells at various concentrations up to 20 µM and incubated at RT for 20 minutes. 1×10^6 K562 target cells were labelled with 75 μCi ^51Cr in 200 μl RPMI for 90 mins at 37° C., cells were washed as described above and resuspended in 5 ml RPMI+0.1% BSA. 50 μl of ^51Cr labelled K562 leukemia target cells were added to each well of the KHYG-1 plate (Effector:Target 2:1) and incubated at 37° C. for 4 hours. ^51Cr release was assayed using a Skatron Harvesting Press and radioactivity estimated on a Wallac Wizard 1470 Automatic Gamma counter (Turku, Finland). The percentage of specific cytotoxicity was calculated by the formula: […]

Setting [3] is: lysis of Jurkat T lymphoma cells by recombinant perforin, 0.1% BSA, 30 min pre-incubation, 4 hours at 37° C.; read-out: Jurkat IC50.

recombinant perforin, sequence (P10820 whole entry): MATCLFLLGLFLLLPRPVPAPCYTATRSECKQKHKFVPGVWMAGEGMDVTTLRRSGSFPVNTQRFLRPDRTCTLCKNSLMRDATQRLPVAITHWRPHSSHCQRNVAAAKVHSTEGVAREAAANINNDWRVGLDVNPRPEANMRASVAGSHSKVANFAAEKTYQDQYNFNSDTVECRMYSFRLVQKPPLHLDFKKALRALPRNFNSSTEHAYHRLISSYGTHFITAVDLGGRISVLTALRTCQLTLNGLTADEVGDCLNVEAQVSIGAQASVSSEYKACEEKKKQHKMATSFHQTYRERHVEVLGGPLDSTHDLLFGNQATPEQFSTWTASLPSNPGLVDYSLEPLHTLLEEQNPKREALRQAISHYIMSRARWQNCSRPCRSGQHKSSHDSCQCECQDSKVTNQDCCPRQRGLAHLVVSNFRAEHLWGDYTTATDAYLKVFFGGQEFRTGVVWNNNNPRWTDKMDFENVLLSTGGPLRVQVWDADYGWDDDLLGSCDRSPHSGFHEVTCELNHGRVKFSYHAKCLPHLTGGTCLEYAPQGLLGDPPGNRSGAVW

On to `Cc1cccc(S(=O)(=O)Nc2cncc(-c3ccc(-c4ccc5c(c4)CN(C)C5=O)s3)c2)c1` [Compound 2, 3-Methyl-N-(5-(5-(2-methyl-1-oxoisoindolin-5-yl)thiophen-2-yl)pyridin-3-yl)benzenesulfonamide], for which the melting point is 281 to 284 °C. Further, the IC50 in data set [1] (read-out: Jurkat IC50; lysis of Jurkat T lymphoma cells by recombinant perforin, 0.1% BSA, 30 min pre-incubation, 4 hours at 37° C.) was found to be 7.33 µM. 20 µM produced 27% inhibition in data set [2].
Molecule `CN1Cc2cc(-c3ccc(-c4cncc(NS(=O)(=O)c5ccccc5F)c4)s3)ccc2C1=O` [Compound 4, 2-Fluoro-N-(5-(5-(2-methyl-1-oxoisoindolin-5-yl)thiophen-2-yl)pyridin-3-yl)benzene-sulfonamide] registered a melting point of 289 to 292 °C. Besides, in data set [1] (setting [3]), the IC50 was found to be 2.03 µM. Moreover, the inhibition at 20 µM in data set [2] amounted to 40%.
`CN1Cc2cc(-c3ccc(-c4cncc(NS(=O)(=O)c5ccccc5Cl)c4)s3)ccc2C1=O` [Compound 9, 2-Chloro-N-(5-(5-(2-methyl-1-oxoisoindolin-5-yl)thiophen-2-yl)pyridin-3-yl)benzenesulfonamide] returned a melting point of 299 to 303 °C. The IC50 in data set [1] (setting [3]) stood at 4.01 µM. Besides, the inhibition at 20 µM in data set [2] came out at 47%.
`CN1Cc2cc(-c3ccc(-c4cncc(NS(=O)(=O)c5cccc(Cl)c5)c4)s3)ccc2C1=O` [Compound 10, 3-Chloro-N-(5-(5-(2-methyl-1-oxoisoindolin-5-yl)thiophen-2-yl)pyridin-3-yl)benzenesulfonamide] showed a melting point of 291 to 295 °C. In data set [1] (setting [3]), the half-inhibitory concentration (IC50) amounted to 2.42 µM. The same molecule had an inhibition at 20 µM in data set [2] of 31%.
As to `CN1Cc2cc(-c3ccc(-c4cncc(NS(=O)(=O)c5ccc(Cl)c(Cl)c5)c4)s3)ccc2C1=O` [Compound 12, 3,4-Dichloro-N-(5-(5-(2-methyl-1-oxoisoindolin-5-yl)thiophen-2-yl)pyridin-3-yl)benzenesulfonamide], the melting point fell in the range of 256 to 259 °C. Besides, the IC50 in data set [1] (setting [3]) amounted to 1.32 µM. In data set [2], the inhibition at 20 µM turned out to be 45%.
In turn, `CN1Cc2cc(-c3ccc(-c4cncc(NS(=O)(=O)c5ccc(Cl)cc5Cl)c4)s3)ccc2C1=O` [Compound 13, 2,4-Dichloro-N-(5-(5-(2-methyl-1-oxoisoindolin-5-yl)thiophen-2-yl)pyridin-3-yl)benzene-sulfonamide] registered a melting point of 282 to 285 °C. In addition, the IC50 in data set [1] (setting [3]) came to 15 µM.
In turn, `CN1Cc2cc(-c3ccc(-c4cncc(NS(=O)(=O)c5ccccc5Br)c4)s3)ccc2C1=O` [Compound 15, 2-Bromo-N-(5-(5-(2-methyl-1-oxoisoindolin-5-yl)thiophen-2-yl)pyridin-3-yl)benzenesulfonamide] returned a melting point of 289 to 293 °C. In addition, the IC50 in data set [1] (setting [3]) stood at 2.66 µM. The inhibition at 20 µM in data set [2] is 42%.
In turn, `CN1Cc2cc(-c3ccc(-c4cncc(NS(=O)(=O)c5cccc(Br)c5)c4)s3)ccc2C1=O` [Compound 16, 3-Bromo-N-(5-(5-(2-methyl-1-oxoisoindolin-5-yl)thiophen-2-yl)pyridin-3-yl)benzenesulfonamide] showed a melting point of 303 to 307 °C. Besides, the IC50 in data set [1] (setting [3]) amounted to 2.11 µM. Besides, 20 µM produced 20% inhibition in data set [2].
As to `COc1ccccc1S(=O)(=O)Nc1cncc(-c2ccc(-c3ccc4c(c3)CN(C)C4=O)s2)c1` [Compound 18, 2-Methoxy-N-(5-(5-(2-methyl-1-oxoisoindolin-5-yl)thiophen-2-yl)pyridin-3-yl)benzenesulfonamide], the melting point lay within 273 to 276 °C. Also, the concentration for half-maximal inhibition (IC50) in data set [1] (setting [3]) came out at 14.8 µM.
`CN1Cc2cc(-c3ccc(-c4cncc(NS(=O)(=O)c5ccccc5OC(F)(F)F)c4)s3)ccc2C1=O` [Compound 22, N-(5-(5-(2-Methyl-1-oxoisoindolin-5-yl)thiophen-2-yl)pyridin-3-yl)-2-(trifluoromethoxy)benzenesulfonamide] had a melting point of 251 to 254 °C. Also, the IC50 in data set [1] (setting [3]) came to 17.7 µM.
`CN1Cc2cc(-c3ccc(-c4cncc(NS(=O)(=O)c5ccc(C(F)(F)F)cc5Cl)c4)s3)ccc2C1=O` [Compound 26, 2-Chloro-N-(5-(5-(2-methyl-1-oxoisoindolin-5-yl)thiophen-2-yl)pyridin-3-yl)-4-(trifluoromethyl)benzenesulfonamide] gave a melting point of 292 to 295 °C.
For the molecule `Cc1ccc(S(=O)(=O)Nc2cncc(-c3ccc(-c4ccc5c(c4)CN(C)C5=O)s3)c2)cc1Cl` [Compound 27, 3-Chloro-4-methyl-N-(5-(5-(2-methyl-1-oxoisoindolin-5-yl)thiophen-2-yl)pyridin-3-yl)benzenesulfonamide], the melting point was 277 to 279 °C. The same molecule returned an inhibition at 20 µM in data set [2] of 52%.
`CN1Cc2cc(-c3ccc(-c4cncc(NS(=O)(=O)c5cccnc5)c4)s3)ccc2C1=O` [Compound 32, N-(5-(5-(2-Methyl-1-oxoisoindolin-5-yl)thiophen-2-yl)pyridin-3-yl)pyridine-3-sulfonamide] gave a melting point of 283 to 286 °C. Further, in data set [1] (setting [3]), the IC50 came out at 15.1 µM.
On to `CN1Cc2cc(-c3ccc(-c4cncc(NS(=O)(=O)c5ccc(Cl)nc5)c4)s3)ccc2C1=O` [Compound 33, 6-Chloro-N-(5-(5-(2-methyl-1-oxoisoindolin-5-yl)thiophen-2-yl)pyridin-3-yl)pyridine-3-sulfonamide], for which the melting point fell in the range of 260 to 265 °C.
For the molecule `COc1ncc(-c2ccc(-c3ccc4c(c3)CN(C)C4=O)s2)cc1NS(=O)(=O)c1ccccc1` [Compound 36, N-(2-Methoxy-5-(5-(2-methyl-1-oxoisoindolin-5-yl)thiophen-2-yl)pyridin-3-yl)benzenesulphonamide], the melting point lay in the range of 280 to 283 °C.
With `COc1ncc(-c2ccc(-c3ccc4c(c3)CNC4=O)s2)cc1NS(=O)(=O)c1ccc(F)cc1F` [Compound 38, 2,4-Difluoro-N-(2-methoxy-5-(5-(1-oxoisoindolin-5-yl)thiophen-2-yl)pyridin-3-yl)benzene sulphonamide], the melting point was 266 to 270 °C. The 50% inhibitory concentration (IC50) in data set [1] (setting [3]) was 5.41 µM.
`CN1Cc2cc(-c3ccc(-c4ccc(NS(=O)(=O)c5ccc(F)cc5F)nc4)s3)ccc2C1=O` [Compound 42, 2,4-Difluoro-N-(5-(5-(2-methyl-1-oxoisoindolin-5-yl)thiophen-2-yl)pyridin-2-yl)benzenesulfonamide] had a melting point of 269 to 272 °C.
For the molecule `CN1Cc2cc(-c3ccc(-c4cncc(NC(=O)c5ccc(F)cc5F)c4)s3)ccc2C1=O` [Compound 47, 2,4-Difluoro-N-(5-(5-(2-methyl-1-oxoisoindolin-5-yl)thiophen-2-yl)pyridin-3-yl)benzamide], the melting point was in the range of 267 to 269 °C.
`CC1c2cc(-c3ccc(-c4cncc(NS(=O)(=O)c5ccc(F)cc5F)c4)s3)ccc2C(=O)N1C` (stereo not shown) [Compound 51, N-(5-(5-(2,3-Dimethyl-1-oxoisoindolin-5-yl)thiophen-2-yl)pyridin-3-yl)-2,4-difluorobenzenesulfonamide]: the melting point is 229 to 230 °C.
Turning to `O=C1NCCc2cc(-c3ccc(-c4cncc(NS(=O)(=O)c5ccc(F)cc5F)c4)s3)ccc21` [Compound 52, 2,4-Difluoro-N-(5-(5-(1-oxo-1,2,3,4-tetrahydroisoquinolin-6-yl)thiophen-2-yl)pyridin-3-yl)benzensulphonamide], the melting point was in the range of 267 to 270 °C.
`CN1CCc2cc(-c3ccc(-c4cncc(NS(=O)(=O)c5ccc(F)cc5F)c4)s3)ccc2C1=O` [Compound 53, 2,4-Difluoro-N-(5-(5-(2-methyl-1-oxo-1,2,3,4-tetrahydroisoquinolin-6-yl)thiophen-2-yl)pyridin-3-yl)benzenesulfonamide] showed a melting point of 262 to 265 °C.
Still for that read-out and setting: the figure for `O=C1NCCc2ccc(-c3ccc(-c4cncc(NS(=O)(=O)c5ccc(F)cc5F)c4)s3)cc21` [Compound 54, 2,4-Difluoro-N-(5-(5-(1-oxo-1,2,3,4-tetrahydroisoquinolin-7-yl)thiophen-2-yl)pyridin-3-yl)benzenesulfonamide] is 252 °C (dec.).
Molecule `CN1CCc2ccc(-c3ccc(-c4cncc(NS(=O)(=O)c5ccc(F)cc5F)c4)s3)cc2C1=O` [Compound 55, 2,4-Difluoro-N-(5-(5-(2-methyl-1-oxo-1,2,3,4-tetrahydroisoquinolin-7-yl)thiophen-2-yl)pyridin-3-yl)benzenesulfonamide] returned a melting point of 280 to 283 °C. Besides, in data set [2], testing at 20 µM gave an inhibition of 0%.
As to `O=C1c2ccc(-c3ccc(-c4cncc(NS(=O)(=O)c5ccc(F)cc5F)c4)s3)cc2CN1CCCO` [Compound 57, 2,4-Difluoro-N-(5-(5-(2-(3-hydroxypropyl)-1-oxoisoindolin-5-yl)thiophen-2-yl)pyridin-3-yl)benzenesulfonamide], the melting point was 239 to 241 °C.
In turn, `Cc1ccc(NS(=O)(=O)c2ccc(F)cc2F)cc1-c1ccc(-c2ccc3c(c2)CN(C)C3=O)s1` [Compound 61, 2,4-Difluoro-N-(4-methyl-3-(5-(2-methyl-1-oxoisoindolin-5-yl)thiophen-2-yl)phenyl)benzenesulfonamide] displayed a melting point of 268 to 271 °C.

As usually defined, the IC50 is the concentration at which inhibition is half-maximal. As usually defined, the inhibition is the drop in the measured response relative to a control, in per cent. Lower therefore signals a response near the control. A word on the melting point: it is the temperature, or range, at which the solid turns liquid.
